Patent publication US8846653B2, “Delta-tocotrienol treatment and prevention of pancreatic cancer” (University of South Florida, priority 2006, dated 2014)

Tests used:
[1] = system: human pancreatic ductal epithelial cells transformed with oncogenic K-ras (HPDE-K-ras); assay: Proliferation (MTT) of K-ras transformed ductal epithelial cells; format: cell-based; conditions: 72 hours
Protocol: FIGS. 36A and B are graphs showing the effect of tocotrienols on Human Pancreatic Ductal Epithelial Kras Transformed cells (MTT). (A) Tocotrienols (10-100 μM) had no effect on the proliferation of normal immortalized human pancreatic ductal epithelial cells at 72 hours. […] Points, means; bars, SE (n=3). *p<0.001 vs. vehicle. # p<0.02 vs. vehicle
The Ras effector pathways Raf-MEK-ERK and PI3 kinase-AKT are important for cell proliferation and survival, respectively. Pancreatic cancer cell lines (MIA PaCa2, SW1990, BXPC3) and HPDE 6C7 cells were treated with 8-tocotrienol (20 μM) and cell lysates were collected and prepared at progressive time intervals as described above. Proteins from lysates were run by SDS PAGE and immunoblotted with the following antibodies: Ras, p-cRaf (ser 338), p-MEK1/2, MEK1/2, pERK 44/42, ERK 44/42 (Cell Signaling) and c-Raf (BD Transduction Laboratories). […] The MIA PaCa2 and SW1990 cells were then tested for AKT inhibition. The cells were treated with δ-tocotrienol (20 μM) for 24 and 48 hours and cell lysates were run by SDS-PAGE and immunoblotted for p-AKT and AKT (Cell Signaling). […] Taken together, the inhibition of downstream effectors of oncogenic Ras signaling by δ-tocotrienol without an effect on Ras protein levels may indicate a negative regulatory role of 8-tocotrienol on the function of oncogenic Ras. The pancreatic ductal epithelial cell proliferative inhibition by δ-tocotrienol was tested to see if it occurs through blocking aberrant signal transduction cascades. Immortalized human pancreatic ductal epithelial cells (HPDE) and human pancreatic ductal epithelial cells that were transformed by stable transfection of a mutated K-ras oncogene (HPDE-K-ras) were used to test the. effect of tocotrienols on the proliferation of HPDE and HPDE-K-ras.

[2] = system: MiaPaCa2 pancreatic cancer cells; assay: Malignant transformation (Soft Agar) colony formation; format: cell-based, human; conditions: MiaPaCa2, 50 μM, vs vehicle
Protocol: FIG. 20 is a graph showing the effect of tocotrienols on pancreatic cancer malignant transformation (Soft Agar). […] Bars, SE (n=3). *p<0.001 vs. vehicle. **p<0.02 vs. vehicle. ***p<0.05 vs. vehicle. T=tocopherol, T3=tocotrienol.
MiaPaCa2 cells (3×10^3) were cultured as described in the Examples above, in 96-well plates and treated with 50 μM of different tocopherol or tocotrienol.

[3] = system: AsPc1 pancreatic cancer cells; assay: Effect of tocotrienols on pancreatic cancer proliferation (MTT), 72 hours; format: cell-based, human; conditions: AsPc1, 40 to 100 μM, vs vehicle
Description: (§1) FIGS. 11A and B are graphs showing the effect of tocotrienols on pancreatic cancer proliferation (MTT). […] Points, means; bars, SE (n=3).

[4] = system: MiaPaCa2 pancreatic cancer cells; assay: as above; format: cell-based, human; conditions: MiaPaCa2, 40 to 100 μM, vs vehicle
Description: as §1

[5] = system: MiaPaCa2 pancreatic cancer cells; assay: Apoptosis by cell death ELISA, 72 hours; format: cell-based, human; conditions: MiaPaCa2, 50 μM
Protocol: (§2) FIGS. 38A and B are graphs showing the effect of tocotrienols on pancreatic cancer survival (Trypan Blue and Cell death ELISA). […] T3=tocotrienol, T=tocopherol, vit E=vitamin E succinate, gem=gemcitabine, 5-FU=fluorouracil.
(§3) MIA PaCa2 cells (3×10^3) were plated in 96 well plates and treated the following day with different compositions of tocoperhol, tocotrienol, gemcitabine, or fluorouracil. The cells were harvested 72 hours later and tested using trypan blue assay and cell death ELISA.

BxPc-3 cells = assay: Annexin V-FITC staining, flow cytometry for apoptosis; format: cell-based, human; conditions: BxPc-3, varying concentrations, 24 hours
Protocol: FIG. 4 is a graph wherein BXPC3 pancreatic cancer cells were treated with in varying concentrations of δ-tocotrienol or vehicle for 24 hours. Cells were collected and stained with Annexin V-FITC and analyzed by flow cytometry for apoptosis.
MiaPaCa2 and HPDE 6C7 cells were cultured, as discussed above, and treated with δ-tocotrienol or vehicle. […] MiaPaCa-2, BxPc-3, and SW1990 pancreatic cancer cells were treated with in varying concentrations of δ-tocotrienol or vehicle for 24 hours. The cells were then harvested for annexin V-FITC staining and analyzed by flow cytometry.

MiaPaCa-2 cells = assay: MTT assay of MiaPaCa2 cultures, single 50 μM dose; format: cell-based, human; design: rel amt (relative value set to the control): unit not given here; conditions: MiaPaCa2, 50 μM; for MTT assay result, av-blank: average minus blank; for MTT assay result, av: average of 7 runs
Protocol: MiaPaCa-2, BxPc-3, and HPDE6-C7 cells were cultured as described above, and treated with a single 50 μM dose of vehicle (ethanol extracted olive oil), T3 alpha (alpha tocotrienol), T3 beta (beta tocotrienol), T3 gamma (gamma tocotrienol), T3 delta (delta tocotrienol), T alpha (alpha tocopherol), T beta (beta tocopherol), TS (tocopherol succinate), GG (geranylgeraniol), SA (succinic acid). A control culture (vehicle only with no treatment) was grown alongside the treatments for comparison. Cell viability was measured using MTT assay at preselect times of 48 or 120 hours after treatment.

[6] = system: MiaPaCa2 pancreatic cancer cells; assay: Cell death by trypan blue assay, 72 hours; format: cell-based, human; conditions: MiaPaCa2, 50 μM
Protocol: as §2, §3

[7] = system: oncogenic Ras signaling targets in tumors; assay: Immunohistochemical staining of extracted xenograft tumors; format: in vivo, mice
Protocol: FIGS. 50A and B are immunohistochemical stains of the effects of δ-tocotrienol on oncogenic Ras signaling targets. […] A. A comparison of H&E, Ki67, and p-MAPK staining of control versus delta-tocotrienol treated MIA PaCa2 cells. B. A comparison of p-AKT, p27^kip1, and TUNEL staining of control versus delta-tocotrienol treated cells.
Tumors were extracted on the last day of treatment and imbedded in paraffin. Immunohistochemical staining was performed to determine the effects of δ-tocotrienol on oncogenic Ras signaling targets. […] Furthermore, the biomarker proteins p-MAPK and p-AKT were decreased and p27^kip1 expression was increased in δ-tocotrienol treated tumors. […] This is associated with inhibition of AKT signaling targets. Moreover, overexpression of myr AKT in Pancreatic Cancer cells rescues the effect δ-Tocotrienol induces apoptosis in vitro and in vivo.

[8] = tumors from treated mice vs control group

| Compound | proliferation (MTT) [1] | malignant transformation (Soft Agar) [2] | proliferation (MTT) [3] | proliferation (MTT) [4] | apoptosis (Cell death ELISA) [5] | rel amt (relative value set to the control) (MiaPaCa-2 cells; 48 hours) | MTT assay result, av-blank (MiaPaCa-2 cells; 48 hours) | MTT assay result, av (MiaPaCa-2 cells; 48 hours) | MTT assay result, run 1 (MiaPaCa-2 cells; 48 hours) | MTT assay result, run 2 (MiaPaCa-2 cells; 48 hours) | MTT assay result, run 3 (MiaPaCa-2 cells; 48 hours) | MTT assay result, run 4 (MiaPaCa-2 cells; 48 hours) | MTT assay result, run 5 (MiaPaCa-2 cells; 48 hours) | MTT assay result, run 6 (MiaPaCa-2 cells; 48 hours) | MTT assay result, run 7 (MiaPaCa-2 cells; 48 hours) | rel amt (relative value set to the control) (MiaPaCa-2 cells; 120 hours (5 days)) | MTT assay result, av-blank (MiaPaCa-2 cells; 120 hours (5 days)) | MTT assay result, av (MiaPaCa-2 cells; 120 hours (5 days)) | MTT assay result, run 1 (MiaPaCa-2 cells; 120 hours (5 days)) | MTT assay result, run 2 (MiaPaCa-2 cells; 120 hours (5 days)) | further results |
| --- | --- | --- | --- | --- | --- | --- | --- | --- | --- | --- | --- | --- | --- | --- | --- | --- | --- | --- | --- | --- | --- |
| CC(C)=CCC/C(C)=C/CC/C(C)=C/CC[C@]1(C)CCc2cc(O)cc(C)c2O1 [T3 delta, delta tocotrienol] | significantly inhibited | significantly inhibited the malignant transformation | significantly decreased the proliferation | significantly decreased the proliferation | significantly induced | 70 | 0.217 | 0.263 | 0.276 | 0.284 | 0.262 | 0.239 | 0.275 | 0.239 | 0.269 | 72 | 1.304 | 1.356 | 1.344 | 1.314 | induction of apoptosis (annexin V-FITC) (BxPc-3 cells): dose dependent induction of apoptosis; MTT assay result, run 3 (MiaPaCa-2 cells; 120 hours (5 days)): 1.27; MTT assay result, run 4 (MiaPaCa-2 cells; 120 hours (5 days)): 1.337; MTT assay result, run 5 (MiaPaCa-2 cells; 120 hours (5 days)): 1.579; MTT assay result, run 6 (MiaPaCa-2 cells; 120 hours (5 days)): 1.308; MTT assay result, run 7 (MiaPaCa-2 cells; 120 hours (5 days)): 1.341; cell death (Trypan Blue) [6]: significantly induced the death; p27^kip1 expression ([7]; treated tumors): increased; p-AKT ([7]; treated tumors): decreased; p-MAPK ([7]; treated tumors): decreased; Ki67 staining (proliferation) [7, 8]: decrease in Ki67; TUNEL staining (apoptosis) [7, 8]: induction of apoptosis |
| alpha tocotrienol [T3 alpha] | no effect | no effect | no effect | no effect | no effect | 94 | 0.292 | 0.338 | 0.349 | 0.341 | 0.356 | 0.329 | 0.349 | 0.316 | 0.323 | 84 | 1.528 | 1.580 | 1.497 | 1.573 | MTT assay result, run 3 (MiaPaCa-2 cells; 120 hours (5 days)): 1.569; MTT assay result, run 4 (MiaPaCa-2 cells; 120 hours (5 days)): 1.55; MTT assay result, run 5 (MiaPaCa-2 cells; 120 hours (5 days)): 1.811; MTT assay result, run 6 (MiaPaCa-2 cells; 120 hours (5 days)): 1.589; MTT assay result, run 7 (MiaPaCa-2 cells; 120 hours (5 days)): 1.47; cell death (Trypan Blue) [6]: no effect |
